In USRE43932E1, “Crystal modification of a N-phenyl-2-pyrimidineamine derivative, processes for its manufacture and its use” (Novartis AG, priority 1997, dated 2013):

Tests used:
[1] = test system: angiogenic effect of growth factors (VEGF, PDGF, bFGF); experiment: Subcutaneous agar chamber angiogenesis model with growth factor; format: in vivo, mice (C57 BL/6); details: mice, oral dose of 50 mg/kg once daily, chambers removed after 5 days
Experimental: Dosing is started one day before implantation of the chambers. The chambers are removed after 5 days. The angiogenic efficacy is quantified by measuring both the vascularised tissue which has grown around the implant and the blood content of this tissue (external blood). The blood is determined by measuring the haemoglobin.

[2] = test system: PDGF receptor; experiment: PDGF-stimulated receptor tyrosine kinase activity in PDGF receptor immune complexes of BALB/c 3T3 cells; format: biochemical
Experimental: The inhibition of PDGF-stimulated receptor tyrosine kinase activity in vitro is measured in PDGF receptor immune complexes of BALB/c 3T3 cells, as described by E. Andrejauskas-Buchdunger and U. Regenass in Cancer Research 52, 5353-5358 (1992).

[3] = Flow properties of the crystals; format: physicochemical; details: for solid dosage forms
[4] = test system: denuded thoracic aorta; experiment: Rat thoracic aorta denudation, cell counts; format: in vivo, male Wistar rats; details: rats, 50 mg/kg i.p. per day
[5] = test system: denuded left common carotid artery; experiment: Rat carotid artery denudation, cell counts and BrdU labelling; format: in vivo, male Wistar rats
[6] = test system: tracheal allogenic transplants; details: 50 mg/kg combined with CsA 1 mg/kg s.c.
Source text: In contrast to patients without OB, those with OB often show an elevated PDGF concentration in bronchoalveolar lavage fluids.

| SMILES | Angiogenic effect of growth factors (VEGF, PDFG, bFGF) [1] | PDGF-dependent acellular receptor phosphorylation [2] | Flow properties [3] | Number of smooth-muscle cells in aorta-denuded animals [4] | Absolute number of BrdU-labelled cells in the intima, media, and adventitia ([5]; first two labelling periods (0-72 and 72-96 h)) | Number of BrdU-labelled cells in all compartments ([5]; labelling after 93-96 h) | Cell count for smooth-muscle cells in the carotid ([5]; rats, 50 mg/kg i.p. per day, 4 days after denudation) | Cell count in the adventitia and the media ([5]; rats, 50 mg/kg i.p. per day, carotid denudation) | Effect of combination with CsA [6] |
| --- | --- | --- | --- | --- | --- | --- | --- | --- | --- |
| Cc1ccc(NC(=O)c2ccc(CN3CCN(C)CC3)cc2)cc1Nc1nccc(-c2cccnc2)n1 [compound of formula I] | inhibits | inhibits |  |  |  |  |  |  |  |
| CS(=O)(=O)O.Cc1ccc(NC(=O)c2ccc(CN3CCN(C)CC3)cc2)cc1Nc1nccc(-c2cccnc2)n1 [α-crystal form] |  |  | unfavourable |  |  |  |  |  |  |
| CS(=O)(=O)O.Cc1ccc(NC(=O)c2ccc(CN3CCN(C)CC3)cc2)cc1Nc1nccc(-c2cccnc2)n1 [β-crystal form] |  |  | substantially more favourable than those of the α-crystal form | Decreases | slight decrease | decrease | significant decrease | significant reduction | synergism |
